According to the supplement of paper PMC10307832:

What was measured:
Test in all cases: relative viability (nuclei count vs DMSO), 5 days (fraction); higher = more cells survive
[1] = compound: CC[C@H](C)N1C=C(C2=C(C=C(C=C21)C3=CN=C(C=C3)N4CCNCC4)C(=O)NCC5=C(C=C(NC5=O)C)C)C [GSK126] + CCNC(=O)c1noc(-c2cc(C(C)C)c(O)cc2O)c1-c1ccc(CN2CCOCC2)cc1 [Luminespib] (partner 0.01 µM)
Summary of the method: (§1)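 Cells from lung cancer lines were seeded into 1536-well plates and, one day later, dosed by pin tool. Treatments were either a single drug or a fixed dose of an anchor drug with five library-drug doses (not always all listed) in √10 steps. After 5 days, nuclei were stained in a one-step fixation (final 0.05% Triton X-100, 1% formaldehyde, 1 ug/ml Hoechst) and counted on 4× images, and relative viability is the treated-to-vehicle nuclei ratio, as the median of duplicate plates.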

[2] = compound: NS(=O)(=O)OC[C@@H]1C[C@@H](n2ccc3c(N[C@H]4CCc5ccccc54)ncnc32)C[C@@H]1O [MLN4924] + CCNC(=O)c1noc(-c2cc(C(C)C)c(O)cc2O)c1-c1ccc(CN2CCOCC2)cc1 [Luminespib] (partner 0.01 µM)
Summary of the method: as §1

[3] = compound: NS(=O)(=O)OC[C@@H]1C[C@@H](n2ccc3c(N[C@H]4CCc5ccccc54)ncnc32)C[C@@H]1O [MLN4924] + C[C@@H](Oc1cc(-c2cnn(C3CCNCC3)c2)cnc1N)c1c(Cl)ccc(F)c1Cl [Crizotinib] (partner 1 µM)
Summary of the method: as §1

[4] = compound: NS(=O)(=O)OC[C@@H]1C[C@@H](n2ccc3c(N[C@H]4CCc5ccccc54)ncnc32)C[C@@H]1O [MLN4924] + N=C(N)NC(=N)NCCc1ccccc1 [Phenformin] (partner 250 µM)
Summary of the method: as §1

Cell Line	relative viability ([1]; first compound 0.08 µM)	relative viability ([1]; first compound 0.253 µM)	relative viability ([1]; first compound 0.8 µM)	relative viability ([1]; first compound 2.53 µM)	relative viability ([1]; first compound 8 µM)	relative viability ([2]; first compound 0.04 µM)	relative viability ([2]; first compound 0.1265 µM)	relative viability ([2]; first compound 0.4 µM)	relative viability ([2]; first compound 1.265 µM)	relative viability ([2]; first compound 4 µM)	relative viability ([3]; first compound 0.04 µM)	relative viability ([3]; first compound 0.1265 µM)	relative viability ([3]; first compound 0.4 µM)	relative viability ([3]; first compound 1.265 µM)	relative viability ([3]; first compound 4 µM)	relative viability ([4]; first compound 0.04 µM)	relative viability ([4]; first compound 0.1265 µM)	relative viability ([4]; first compound 0.4 µM)	relative viability ([4]; first compound 1.265 µM)	relative viability ([4]; first compound 4 µM)
NCI-H1755	0.435	0.519	0.58	0.381	0.501	0.441	0.443	0.238	0.221	0.231	0.798	0.761	0.52	0.181	0.154	0.605	0.534	0.332	0.228	0.23
NCI-H647	0.358	0.193	0.144	0.202	0.124	0.193	0.157	0.127	0.0558	0.0842	0.925	0.665	0.197	0.0313	0.0474	0.367	0.348	0.118	0.0487	0.0541
NCI-H1651	0.966	0.948	0.766	0.732	0.817	0.725	0.745	0.607	0.315	0.224	0.913	0.85	0.76	0.357	0.167	0.347	0.317	0.313	0.171	0.157
NCI-H1437	1.09	1.07	1.04	1.11	1.06	0.783	1.05	0.811	0.626	0.226	0.854	0.77	0.626	0.336	0.164	0.325	0.337	0.388	0.258	0.195
NCI-H1975	0.292	0.257	0.185	0.198	0.12	0.322	0.556	0.36	0.382	0.252	0.876	1.11	1.17	0.484	0.22	0.418	0.479	0.494	0.328	0.184
BEN	0.465	0.681	0.222	0.419	0.342	0.292	0.201	0.27	0.138	0.158	0.73	0.38	0.272	0.172	0.17	0.214	0.185	0.218	0.183	0.145
NCI-H441	0.361	0.283	0.28	0.35	0.349	0.36	0.387	0.276	0.208	0.245	0.866	0.693	0.361	0.158	0.169	0.79	0.554	0.333	0.211	0.227
NCI-H2170	0.655	0.924	0.595	0.546	0.722	0.631	0.443	0.269	0.172	0.147	1.2	0.599	0.507	0.16	0.185	0.359	0.305	0.214	0.183	0.185
HCC-44	1.14	1.1	1	1.11	1.16	0.964	0.564	0.441	0.227	0.294	0.65	0.527	0.189	0.168	0.155	0.144	0.172	0.0837	0.0692	0.102
NCI-H3122	0.0614	0.0957	0.0787	0.0846	0.103	0.078	0.063	0.0724	0.0583	0.0491	0.369	0.338	0.358	0.178	0.153	0.315	0.274	0.169	0.131	0.136
NCI-H1650	0.217	0.193	0.188	0.166	0.205	0.225	0.217	0.243	0.224	0.203	1.04	0.658	0.333	0.202	0.166	0.398	0.339	0.231	0.146	0.198
NCI-H1355	0.783	0.753	0.777	0.881	0.806	0.636	0.684	0.775	0.366	0.208	1.04	1.03	0.963	0.484	0.208	0.42	0.407	0.352	0.218	0.235
NCI-H1734	0.179	0.231	0.117	0.176	0.213	0.202	0.189	0.187	0.122	0.137	0.688	0.622	0.305	0.121	0.131	0.339	0.44	0.229	0.118	0.122
LXF-289	0.736	0.652	0.574	0.661	0.747	0.61	0.425	0.386	0.153	0.144	0.605	0.566	0.508	0.205	0.126	0.491	0.41	0.293	0.163	0.121
